Data as given in the supplement of paper PMC8253809.

Legend:
Test in all cases: area under dose-response curve of % growth inhibition (log2 RLU vs DMSO / staurosporine), 1e-11 to 1e-4 M (% x log10 M); higher = more growth inhibition
HGGX6 = system: HGGX6 (H3.3 G34R paediatric high-grade glioma line)
How it was run: (§1)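 Patient-derived pHGG/DIPG cell lines and astrocytes were plated in 384-well plates coated with 1% Geltrex and treated in triplicate with a 10-point threefold dilution series whose mean top concentration was 35 μM, for 7 days (3 days for iAstro) at 37 °C and 5% CO2. CellTiter-Glo luminescence was log2-transformed and scaled on each plate to % activity between solvent and positive controls. Area under the curve came from the trapezoid rule applied to a fitted log-logistic curve, or to a smoothing spline where the sigmoid fit failed.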

DIPGX29 = system: DIPGX29 (H3.3 K27M diffuse intrinsic pontine glioma line)
How it was run: as §1

DIPGX37 = system: DIPGX37 (H3.3 K27M diffuse intrinsic pontine glioma line)
How it was run: as §1

HGGX39 = system: HGGX39 (paediatric high-grade glioma line)
How it was run: as §1

Structure (SMILES)	area under dose-response curve (HGGX6)	area under dose-response curve (DIPGX29)	area under dose-response curve (DIPGX37)	area under dose-response curve (HGGX39)
Nc1ncnc2c1c(COc1cccc(Cl)c1)nn2C1CCOCC1	14.3	10	32.2	23.5
O=C(O)c1ccc(CN2CCC(CN[C@@H]3C[C@H]3c3ccccc3)CC2)cc1	0.903	1.9	20.1	2.17
CN(N=O)C(=O)N[C@H]1C(O)O[C@H](CO)[C@@H](O)[C@@H]1O (mixture of isomers) [STREPTOZOSIN]	5.51	11	8.39	7.25
Nc1ncn([C@@H]2O[C@H](CO)[C@@H](O)[C@H]2O)c(=O)n1 [5-AZACYTIDINE]	12.1	12.5	18.2	17.6
Nc1nc(=O)n([C@H]2C[C@H](O)[C@@H](CO)O2)cc1F [5-FLUORODEOXYCYTIDINE]	28.8	42.2	10.7	39.7
O=c1[nH]cc(F)c(=O)[nH]1 [5-FLUOROURACIL]	25.2	17.6	4.4	10.6
COc1cc2c(cc1OCCCN1CCCC1)N=C(N)C21CCC1 [A-366]	19.9	9.92	19	9.97
CC(=O)O[C@H]1CC[C@@]2(C)C(=CC[C@@H]3[C@@H]2CC[C@]2(C)C(c4cccnc4)=CC[C@@H]32)C1 [ABIRATERONE ACETATE]	0	0	20.1	6.95
CCC1(c2ccc(N)cc2)CCC(=O)NC1=O (stereo not drawn) [AMINOGLUTETHIMIDE]	14.3	7.58	4.75	3.33
CC(C)(C#N)c1cc(Cn2cncn2)cc(C(C)(C)C#N)c1 [ANASTROZOLE]	1.46	7.52	5.71	1.48
CO[C@H]1O[C@@H]2O[C@@]3(C)CC[C@H]4[C@H](C)CC[C@@H]([C@H]1C)[C@@]24OO3 [ARTEMETHER]	17.6	5.53	3.95	14.4
CCN(C(=O)CO)[C@H]1CN(/C(=N\C#N)Nc2cccc(OC(F)F)c2)N=C1c1ccc(Cl)c(Cl)c1 [BAY598]	8.24	18.1	16.3	10.8
Cn1cc(CCn2cnc(-c3cnn(C)c3)c2-c2ccc(C#N)cc2)cn1 [BAZ2-ICR]	14.6	8.96	22.9	16.5
C[C@H]1C[C@H]2[C@@H]3CCC4=CC(=O)C=C[C@]4(C)[C@@]3(F)[C@@H](O)C[C@]2(C)[C@@]1(O)C(=O)CO [BETAMETHASONE]	16.4	23.1	10.5	11.8
C=C(c1ccc(C(=O)O)cc1)c1cc2c(cc1C)C(C)(C)CCC2(C)C [BEXAROTENE]	13.2	21.8	6.14	28.4
COc1cc(-c2cn(C)c(=O)c3cnccc23)c(OC)cc1CN(C)C [BI-9564]	3.53	12.6	11.6	5.33
C/C(=C\C(=O)Nc1ccccc1C(=O)O)c1ccc2ccccc2c1 [BIBR-1532]	8.79	0	20.5	0
CC(=O)Oc1ccc(C(c2ccc(OC(C)=O)cc2)c2ccccn2)cc1 [BISACODYL]	10.4	2.56	11.1	27.8
O=c1[nH]c(=O)n([C@H]2C[C@H](O)[C@@H](CO)O2)cc1/C=C/Br [BRIVUDINE]	2.8	6.05	9.7	1.13
CCCC1O[C@@H]2C[C@H]3[C@@H]4CCC5=CC(=O)C=C[C@]5(C)[C@H]4[C@@H](O)C[C@]3(C)[C@]2(C(=O)CO)O1 (stereo partly drawn) [BUDESONIDE]	6.8	35.7	19.3	11.8
CCCCCCNC(=O)n1cc(F)c(=O)[nH]c1=O [CARMOFUR]	15.3	20.1	30.3	20.2
O=C(O)CCCc1ccc(N(CCCl)CCCl)cc1 [CHLORAMBUCIL]	18.3	25.8	15.9	20.8
Nc1nc(Cl)nc2c1ncn2[C@H]1C[C@H](O)[C@@H](CO)O1 [CLADRIBINE]	39.3	54.8	32.4	40.8
Nc1ccn([C@@H]2O[C@H](CO)[C@@H](O)[C@@H]2O)c(=O)n1 [CYTARABINE]	15.6	42.9	23.3	30.6
CN(C)/N=N/c1[nH]cnc1C(N)=O [DACARBAZINE]	16.5	6.29	17.2	19.3
Nc1ncn([C@H]2C[C@H](O)[C@@H](CO)O2)c(=O)n1 [DECITABINE]	3.81	4.32	9.77	7.33
CC(=O)O[C@@]12CO[C@@H]1C[C@H](O)[C@@]1(C)C(=O)[C@H](O)C3=C(C)[C@@H](OC(=O)[C@H](O)[C@@H](NC(=O)OC(C)(C)C)c4ccccc4)C[C@@](O)([C@@H](OC(=O)c4ccccc4)[C@H]21)C3(C)C [DOCETAXEL]	86.7	55.8	56	120
